In patent US20070275911A1, “Targeted Drug-Formaldehyde Conjugates and Methods of Making and Using the Same” (priority 2003, published 2007):

What was measured:
[1] = system: MDA-MB-435 cells; assay: Drug distribution by fluorescence microscopy; type: cell-based, human; conditions: for cellular distribution of fluorescence: 500 nM
Protocol: Furthermore, once the trigger has fired the DOX fluorophore should appear nuclear.
Analysis of drug distribution by fluorescence microscopy: MDA-MB-435 cells in log phase growth were dissociated with trypsin-EDTA and counted. Cells were suspended in media at 8.3×10^4 cells/mL and 3 mL of cell solution was aliquoted into 6 well plates and allowed to adhere overnight. The cells were treated with 0.5 μM DOX, DOXSF, or DOX-TEG-TAM for various amounts of time (5 min, 20 min, 40 min, 1 h, and 3 h). Drug treatment was accomplished by addition of 30 μL of 100× drug solution (50 μM) to 3 mL of media which was mixed and immediately added to the cells.
Following drug treatment, the media was removed and cells were washed once with 3 mL of serum- and phenol red-free RPMI 1640 at room temperature and 3 mL of the same media was then added back to each well. The cells were then immediately analyzed by fluorescence microscopy. Each condition was performed individually to minimize the amount of time between drug treatment and fluorescence detection.

[2] = system: MCF-7/Adr cells; assay: Uptake and release by flow cytometry; type: cell-based, human; conditions: for drug uptake (DOX fluorophore): 500 nM, 20, 40 and 60 min
Protocol: Uptake and release of DOX-TEG-TAM: The uptake of 500 nM DOX, DOXSF, and DOX-TEG-TAM following treatment for various times up to 1 h was assessed by flow cytometry. […] The release of drugs following a 500 nM treatment for 1 h was assessed at various times out to 6 h post-treatment. Resistant MCF-7/Adr cells were first assessed as they provide a means to evaluate the AEBS targeting hypothesis to explain the dramatic improvement in tumor cell growth inhibition observed for DOX-TEG-TAM relative to DOXSF and clinical DOX. […] In all three cases the drug fluorescence decreased dramatically up to 1 h post-treatment, as free drug was transported from the cell. […] The enhanced uptake and retention of DOX-TEG-TAM relative to DOX and DOXSF parallels the growth inhibition data of Example 4 and provides evidence in favor of the targeting hypothesis involving interaction with AEBS.
(§1) Uptake and release of DOX, DOXSF, and DOX-TEG-TAM: The uptake and release of DOX-TEG-TAM in breast cancer cells relative to DOX and untargeted DOXSF was performed as described with modifications. Breast cancer cells in log phase growth were dissociated with trypsin-EDTA, counted, resuspended in media at 1.5×10^5 cells/mL, and plated into six well plates (450,000 cells/well) and allowed to adhere overnight. The cells were treated with 0.5 μM DOX, DOXSF, or DOX-TEG-TAM for various amounts of time (20 min, 40 min, and 60 min). Drug treatment was accomplished by addition of 30 μL of 100× drug solution (50 μM) to 3 mL of media which was mixed and immediately added to the cells. For each time point, the media was removed, cells were trypsinized, and trypsinization was quenched with 3 mL phenol red-free RPMI 1640 media (no serum) at 4° C. Cells were pelleted by centrifugation at 300 g for 5 min at 10° C. The supernatant was decanted and the cells were re-suspended in 1 mL serum- and phenol red-free RPMI 1640 media and placed on ice.
For drug retention samples, the cells were treated for 1 h with 0.5 μM DOX, DOXSF, or DOX-TEG-TAM. Following drug treatment, the media was removed and replaced with 3 mL fresh, 37° C., full (containing serum and phenol red indicator) cell media and the cells were incubated for various times (0.5 h, 1 h, 3 h, and 6 h). Following the allotted release times, the cells were prepared as described above. […]
(§2) The extent of drug uptake and retention was measured by flow cytometry. Cells were analyzed with excitation at 488 nm (15 mW Ar ion laser), with emission monitored between 570 and 600 nm. Instrument settings were optimized for each cell line and held constant for all experiments; 10,000 cells were analyzed for anthracycline fluorescence. The data are presented as the mean fluorescence for each condition with the background, drug-free cell fluorescence subtracted.

[3] = system: MDA-MB-435 cells; assay: Uptake, release and competition by flow cytometry; type: cell-based, human; conditions: for decrease of uptake in the presence of tamoxifen: 10 μM tamoxifen competitor
Protocol: Additionally, uptake and release data were obtained for DOX, DOXSF, and DOX-TEG-TAM in estrogen receptor-negative MDA-MB-435 and MDA-MB-231 cells.
Competitive inhibition of drug uptake: If DOX-TEG-TAM targeting is AEBS mediated, the presence of a competitive ligand should inhibit uptake.
as §1
(§3) For drug retention samples, the cells were treated for 1 h with 0.5 μM DOX, DOXSF, or DOX-TEG-TAM. Following drug treatment, the media was removed and replaced with 3 mL fresh, 37° C., full (containing serum and phenol red indicator) cell media and the cells were incubated for various times (0.5 h, 1 h, 3 h, and 6 h). Following the allotted release times, the cells were prepared as described above. Drug treatment was performed such that all cell samples would be prepared within 2 h.
as §2
The cell samples were prepared and analyzed by flow cytometry as described above.

[4] = system: MCF-7 cells; assay: Uptake and release by flow cytometry; type: cell-based, human; conditions: for drug uptake (DOX fluorophore): MCF-7, 500 nM, up to 1 h
Protocol: as §1, §3, §2

[5] = system: MDA-MB-231; assay: Breast cancer cell growth inhibition, 4 h treatment
Protocol: (§4) Breast cancer cell growth inhibition: The ER-targeted DOX-formaldehyde conjugates, 11a-c, were evaluated against four breast cancer cell lines that differ in terms of estrogen receptor and multidrug resistance expression. MCF-7 cells are human breast adenocarcinoma cells that express estrogen receptor at a level of 195,000 sites/cell. MCF-7/Adr cells are an ER-negative, doxorubicin-resistant variant of the parent MCF-7 that express the multidrug resistance (MDR) phenotype. MDA-MB-231 and MDA-MB-435 are ER-negative human breast adenocarcinoma and ductal carcinoma cells, respectively. All cytotoxins were formulated as 100× solutions in DMSO/1% AcOH and delivered to cells as 1% DMSO (0.01% AcOH) in cell culture medium. In all experiments cell treatment lasted 4 h.
(§5) In Vitro cellular growth inhibition experiments: The IC50 for the targeted formaldehyde conjugates and all control compounds were performed as previously described with minor modifications. All compounds were solubilized in dimethylsulfoxide containing 1% v/v acetic acid. The concentrations of all 100× DMSO/1% AcOH drug solutions was determined spectrophotometrically by absorbance at 480 nm (ε=[…]). […] For every experiment each drug level and controls were performed in hexuplicate; each experiment was performed in at least duplicate. Error bars represent one standard deviation about the mean for the six wells per lane measured for each drug concentration.

[6] = system: MCF-7 cells; assay: as above
Protocol: as §4, §5

[7] = system: MCF-7/Adr cells; assay: as above
Protocol: as §4, §5

[8] = system: MDA-MB-435; assay: as above
Protocol: as §4, §5

[9] = MCF-7/Adr (−/+/+), 4 h treatment

CC/C(=C(/c1ccc(O)cc1)c1ccc(OCCN(C)CCOCCOCCO/N=C/c2ccc(O)c(C(=O)NCN[C@H]3C[C@H](O[C@H]4C[C@](O)(C(=O)CO)Cc5c(O)c6c(c(O)c54)C(=O)c4c(OC)cccc4C6=O)O[C@@H](C)[C@H]3O)c2)cc1)c1ccccc1 [11c, E/Z-N-(2-Hydroxy-5-{[2-(2-{2-[(2-{4-[1-(4-hydroxy-phenyl)-2-phenyl-but-1-enyl]-phenoxy}-ethyl)-methyl-amino]-ethoxy}-ethoxy)-ethoxyimino]-methyl}-benzamide)-doxorubicin]
cellular distribution of fluorescence ([1]; 20 min): cytosolic fluorescence was observed
cellular distribution of fluorescence ([1]; 3 h): predominantly nuclear
drug uptake (DOX fluorophore) [2]: almost twice as much
drug retention ([2]; 6 h after 1 h treatment with 500 nM): maintained a higher level of drug retention relative to DOX and DOXSF
fold uptake more than DOX ([3]; MDA-MB-435): 5 fold
fold uptake more than DOXSF ([3]; MDA-MB-435): 3 fold
effect of estradiol on uptake ([3]; MDA-MB-435, 20 nM estradiol): no effect
uptake as % of uptake in the absence of competitor ([3]; MDA-MB-435, 0.5 μM drug, 1 h, 10 μM tamoxifen): 47%
fluorophore retention vs DOXSF or DOX ([3]; MDA-MB-435, after 1 h treatment with 500 nM): retained to a greater extent
drug uptake (DOX fluorophore) [4]: 25 RFU
uptake relative to MDA-MB-435 cells ([4]; MCF-7, 1 h, 500 nM): about 25%
fluorophore retention ([4]; MCF-7, drug release after 6 h): highest level of doxorubicin fluorophore retention
IC50 ([5]; MDA-MB-231 (−/+/−), 4 h treatment, listed as DOX-TEG-TAM): 30 ± 5 nM
IC50 ([6]; MCF-7 (ER/AEBS/MDR +/+/−), 4 h treatment, listed as DOX-TEG-TAM): 40 ± 6 nM
fold more active than doxorubicin ([7]; MCF-7/Adr): 140 fold
fold more cytotoxic than untargeted doxsaliform ([7]; MCF-7/Adr): 28 fold
IC50 [7, 9]: 60 ± 9 nM
IC50 ([8]; MDA-MB-435 (−/+/−), 4 h treatment, listed as DOX-TEG-TAM): 40 ± 6 nM

COc1cccc2c1C(=O)c1c(O)c3c(c(O)c1C2=O)C[C@@](O)(C(=O)CO)C[C@@H]3O[C@H]1C[C@H](N)[C@H](O)[C@H](C)O1 [doxorubicin, reference compound]
cellular distribution of fluorescence ([1]; 20 min): observed in the nucleus
cellular distribution of fluorescence ([1]; 3 h): exclusively nuclear
drug uptake (DOX fluorophore) [2]: one relative fluorescent unit
decrease of uptake in the presence of tamoxifen ([3]; MDA-MB-435, 0.5 μM drug, 1 h): 8%
drug uptake (DOX fluorophore) [4]: 5 RFU
IC50 ([5]; Homo sapiens, MDA-MB-231, 4 h): 300 ± 33 nM
IC50 ([6]; Homo sapiens, MCF7, 4 h): 200 ± 26 nM
IC50 ([7]; Homo sapiens, NCI/ADR-RES, 4 h): 10000 ± 1300 nM
IC50 ([8]; Homo sapiens, MDA-MB-435, 4 h): 150 ± 14 nM

COc1cccc2c1C(=O)c1c(O)c3c(c(O)c1C2=O)C[C@@](O)(C(=O)CO)C[C@@H]3O[C@H]1C[C@H](NCNC(=O)c2ccccc2O)[C@H](O)[C@H](C)O1 [doxsaliform, N-(2-Hydroxybenzamido-methyl)-doxorubicin]
localization pattern ([1]; control experiment, 0.5 μM): exclusively nuclear
drug uptake (DOX fluorophore) [2]: one relative fluorescent unit
decrease of uptake in the presence of tamoxifen ([3]; MDA-MB-435, 0.5 μM drug, 1 h): 6%
drug uptake (DOX fluorophore) [4]: 16 RFU
fold less cytotoxic than 11a-c ([5]; MDA-MB-231): 2-3 fold
IC50 ([5]; MDA-MB-231 (−/+/−), 4 h treatment): 80 ± 9 nM
fold less cytotoxic than 11a-c ([6]; MCF-7): 2-3 fold
IC50 ([6]; MCF-7 (ER/AEBS/MDR +/+/−), 4 h treatment): 70 ± 5 nM
IC50 [7, 9]: 2000 ± 320 nM
cytotoxicity relative to 11a-c ([8]; MDA-MB-435): equally cytotoxic
IC50 ([8]; MDA-MB-435 (−/+/−), 4 h treatment): 50 ± 9 nM
